Laboratory results: article PMC4546622, “Structure of the Glycosyltransferase Ktr4p from Saccharomyces cerevisiae” (PLoS ONE, 2015)

Columns and labels:
[1] = target: T1, Ktr4p (Saccharomyces cerevisiae, UniProt P38131); assay: coupled phosphatase (ENTPD3/CD39L3) malachite green assay; type: biochemical; conditions: 10 μM enzyme, 10 mM MnCl2, 10 mM CaCl2, pH 7.5, 20°C
T1 construct: gene KTR4; lumenal domain (stalk plus catalytic), residues Asn-33 to Tyr-464; N-terminal His6 tag cut off with TEV protease; E. coli Rosetta-gami 2 (DE3); monomer fraction from SEC
T1 sequence (P38131 33-464): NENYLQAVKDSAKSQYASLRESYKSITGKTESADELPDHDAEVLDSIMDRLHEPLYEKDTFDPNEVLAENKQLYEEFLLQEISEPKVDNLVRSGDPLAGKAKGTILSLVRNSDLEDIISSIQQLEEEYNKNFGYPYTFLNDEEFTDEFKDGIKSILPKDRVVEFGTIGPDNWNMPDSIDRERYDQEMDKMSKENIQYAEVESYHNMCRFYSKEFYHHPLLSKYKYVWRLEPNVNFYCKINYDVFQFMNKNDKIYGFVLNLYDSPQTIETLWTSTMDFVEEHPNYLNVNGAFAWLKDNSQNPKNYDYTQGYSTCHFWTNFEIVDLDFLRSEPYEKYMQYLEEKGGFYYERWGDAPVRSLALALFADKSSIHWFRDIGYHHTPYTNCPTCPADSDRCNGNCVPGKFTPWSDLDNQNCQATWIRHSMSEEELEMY

[2] = target: T1, Ktr4p; assay: X-ray crystal structure, […] Å; type: binding; conditions: with Mn2+ in the active site; 5 mM GDP and 5 mM MnCl2; pH 6.5; 4°C
[3] = target: the molecule itself; assay: SEC; Superdex 200 16/60, 10 mM HEPES pH 7.4, 150 mM NaCl; final purification step; monomer and dimer peaks at a ratio of ~2:1, monomer peak the largest

Which “coupled phosphatase (ENTPD3/CD39L3) malachite green assay” value ([1]; sugar donor, 50 μM, 500 μM acceptor) does the source give for `Nc1nc2c(ncn2[C@@H]2O[C@H](COP(=O)(O)OP(=O)(O)O[C@H]3O[C@H](CO)[C@@H](O)[C@H](O)[C@@H]3O)[C@@H](O)[C@H]2O)c(=O)[nH]1` [GDP-mannose] here?
The value was “GDP-mannose is a suitable sugar donor”.

`CO[C@H]1O[C@H](CO)[C@@H](O)[C@H](O)[C@@H]1O` [methyl-α-mannoside] was tested. Which “coupled phosphatase (ENTPD3/CD39L3) malachite green assay” value ([1]; sugar acceptor, 500 μM, 50 μM GDP-mannose) did it give?
The value was “we observe the most efficient activity with methyl-α-mannoside”.

For `Nc1nc2c(ncn2[C@@H]2O[C@H](COP(=O)(O)OP(=O)(O)O)[C@@H](O)[C@H]2O)c(=O)[nH]1` [GDP], which “X-ray crystal structure, 1.9 Å” value [2] is on record?
Its value is 5a08 for the apo structure and 5a07 for the GDP-complex structure.

B1: Ktr4p lumenal domain (residues Asn-33 to Tyr-464; stalk domain and catalytic domain) (domain or fragment, S. cerevisiae, UniProt P38131 33-464, looked up)
chain: NENYLQAVKDSAKSQYASLRESYKSITGKTESADELPDHDAEVLDSIMDRLHEPLYEKDTFDPNEVLAENKQLYEEFLLQEISEPKVDNLVRSGDPLAGKAKGTILSLVRNSDLEDIISSIQQLEEEYNKNFGYPYTFLNDEEFTDEFKDGIKSILPKDRVVEFGTIGPDNWNMPDSIDRERYDQEMDKMSKENIQYAEVESYHNMCRFYSKEFYHHPLLSKYKYVWRLEPNVNFYCKINYDVFQFMNKNDKIYGFVLNLYDSPQTIETLWTSTMDFVEEHPNYLNVNGAFAWLKDNSQNPKNYDYTQGYSTCHFWTNFEIVDLDFLRSEPYEKYMQYLEEKGGFYYERWGDAPVRSLALALFADKSSIHWFRDIGYHHTPYTNCPTCPADSDRCNGNCVPGKFTPWSDLDNQNCQATWIRHSMSEEELEMY
notes: Cloned in pNIC28-Bsa4 with a His6 tag and a TEV site N-terminal of the construct; the tag was removed with TEV protease; A few residues of the vector probably remain at the N-terminus after cleavage (surmised from the forward primer); Residues 33-69/70 are not visible in the structures; source: E. coli Rosetta-gami 2 (DE3), purified (Ni-NTA IMAC, TEV cleavage, second IMAC pass, Superdex 200 SEC); …
With B1 as the molecule, how does the “stoichiometry N” value [3] read?
The value was 2.
